Assay results from ChEMBL document CHEMBL4765425, “Synthesis of 1,3,4-oxadiazole derivatives with anticonvulsant activity and their binding to the GABA receptor” (Eur J Med Chem, 2020).
Calls of active or inactive are those of the source. The calls are words filed in the database; no cut-off is given here.

Legend:
Mus musculus [1] = assay: Anticonvulsant activity in Kunming mouse assessed as reduction in MES-induced seizure at 100 mg/kg, ip measured after 30 mins; assay type: functional, organism-based
Mus musculus [2] = assay: Anticonvulsant activity in Kunming mouse assessed as reduction in ScPTZ-induced seizure at 300 mg/kg, ip measured after 30 mins; assay type: functional, organism-based
[3] = Neurotoxicity in Kunming mouse at 100 mg/kg, ip measured after 30 mins by rotarod test; assay type: toxicity, organism-based; conditions: in vivo, 0.5 h
[4] = Neurotoxicity in Kunming mouse at 300 mg/kg, ip measured after 30 mins by rotarod test; assay type: toxicity, organism-based; conditions: in vivo, 0.5 h
Mus musculus [5] = assay: Anticonvulsant activity in Kunming mouse assessed as reduction in MES-induced seizure at 2 mg/kg, ip measured after 30 mins; assay type: functional, organism-based
[6] = Displacement of [3H]flunitrazepam from GABA-A receptor benzodiazepine site in mouse cerebellum synaptosomal membrane; assay type: subcellular, Synaptosome
Rattus norvegicus [7] = assay: Anxiolytic activity in Wistar rat assessed as increase in time spent in open sided arms at 1 mg/kg, ip measured for 5 mins by elevated plus maze test; assay type: functional, organism-based
Mus musculus [8] = assay: Anticonvulsant activity in Kunming mouse assessed as reduction in MES-induced seizure at 30 mg/kg, ip measured after 30 mins; assay type: functional, organism-based
Mus musculus [9] = assay: Anticonvulsant activity in Kunming mouse assessed as reduction in MES-induced seizure at 300 mg/kg, ip measured after 30 mins; assay type: functional, organism-based
Mus musculus [10] = assay: Anticonvulsant activity in Kunming mouse assessed as reduction in ScPTZ-induced seizure at 100 mg/kg, ip measured after 30 mins; assay type: functional, organism-based
Mus musculus [11] = assay: Anticonvulsant activity in ip dosed Kunming mouse assessed as reduction in MES-induced seizure measured after 30 mins; assay type: functional; conditions: 0.5 h
Mus musculus [12] = assay: Anticonvulsant activity in ip dosed Kunming mouse assessed as reduction in ScPTZ-induced seizure measured after 30 mins; assay type: functional; conditions: 0.5 h
[13] = Neurotoxicity in ip dosed Kunming mouse measured after 30 mins by rotarod test; assay type: toxicity, organism-based; conditions: in vivo
[14] = Protection index, ratio of TD50 for neurotoxicity in ip dosed Kunming mouse to ED50 for anticonvulsant activity in ip dosed MES-induced Kunming mouse; assay type: toxicity, organism-based; conditions: in vivo, read-out: TI
[15] = Protection index, ratio of TD50 for neurotoxicity in ip dosed Kunming mouse to ED50 for anticonvulsant activity in ip dosed ScPTZ-induced Kunming mouse; assay type: toxicity, organism-based; conditions: in vivo, read-out: TI
Rattus norvegicus [16] = assay: Effect on GABA level in Wistar rat brain assessed as increase in GABA level at 30 mg/kg, ip measured after 2 hrs; assay type: functional, organism-based
Rattus norvegicus [17] = assay: Effect on GABA level in Wistar rat brain assessed as increase in GABA level at 30 mg/kg, ip measured after 7 days; assay type: functional, organism-based; conditions: time 7.0 day
Rattus norvegicus [18] = assay: Anxiolytic activity in Wistar rat assessed as increase in time spent in open sided arms at 1 mg/kg, ip measured for 5 mins in presence of GABAA receptor antagonist by elevated plus maze test; assay type: functional, organism-based
Mus musculus [19] = assay: Anticonvulsant activity in Kunming mouse assessed as reduction in ScPTZ-induced seizure at 30 mg/kg, ip measured after 30 mins; assay type: functional, organism-based
[20] = Neurotoxicity in Kunming mouse at 30 mg/kg, ip measured after 30 mins by rotarod test; assay type: toxicity, organism-based; conditions: in vivo, 0.5 h

Compound	Activity (Mus musculus [1])	Activity [3]	Activity [4]	IC50 [6]	Activity (Mus musculus [8])	Activity (Mus musculus [10])	ED50 (Mus musculus [11])	ED50 (Mus musculus [12])	TD50 at 0.5 h [13]	selectivity ratio [14]	selectivity ratio [15]	further results
O=C1CCc2cc(OCc3nnc(SCc4ccc(F)cc4)o3)ccc2N1	inactive	Non-Toxic	Non-Toxic									Activity (Mus musculus [2]): Active
CN1C(=O)CN=C(c2ccccc2)c2cc(Cl)ccc21 [DIAZEPAM]				42 nM								Activity (Mus musculus [5]): Active; Activity (Rattus norvegicus [7]): Active
CCCCCCCCSc1nnc(COc2ccc3c(c2)CCC(=O)N3)o1		Non-Toxic	Non-Toxic		inactive							Activity (Mus musculus [9]): Active
CCCCCSc1nnc(COc2ccc(-n3cnnc3)cc2)o1	Active	Non-Toxic	Non-Toxic	3430 nM	Active	Active	18.7 mg/kg	27.9 mg/kg	421 mg/kg	22.5	15.1	
CCCCCSc1nnc(COc2ccc3c(c2)CCC(=O)N3)o1	Active	Non-Toxic	Non-Toxic	110 nM	Active	Active	8.9 mg/kg	10.2 mg/kg	575 mg/kg	64.6	56.4	Activity (Rattus norvegicus [16]): Active; Activity (Rattus norvegicus [17]): Active; Activity (Rattus norvegicus [7]): Active; Activity (Rattus norvegicus [18]): inactive; Activity (Mus musculus [19]): Active
NC(=O)N1c2ccccc2C=Cc2ccccc21 [CARBAMAZEPINE]					Active		11.8 mg/kg			6.4		Activity [20]: Non-Toxic
CCC1(C)CC(=O)NC1=O (stereo not drawn) [ETHOSUXIMIDE]		Non-Toxic						106 mg/kg	343 mg/kg		3.2	
CC(=O)Nc1ccc(OCc2nnc(SCc3ccc(C(F)(F)F)cc3)o2)cc1	Active	Non-Toxic	Non-Toxic			Active						
CCCCCCSc1nnc(COc2ccc3c(c2)CCC(=O)N3)o1	Active	Non-Toxic	Non-Toxic	880 nM	Active	Active	10.4 mg/kg	17.9 mg/kg	466 mg/kg	44.7	26	
CCCCCSc1nnc(COc2ccc(NC(C)=O)cc2)o1	Active	Non-Toxic	Non-Toxic	1290 nM		Active	22.6 mg/kg	28.1 mg/kg	389 mg/kg	17.2	13.8	
Cc1ccc(CSc2nnc(COc3ccc4c(c3)CCC(=O)N4)o2)cc1	Active	Non-Toxic	Non-Toxic									Activity (Mus musculus [9]): Active
CCCCCCCCCSc1nnc(COc2ccc(NC(C)=O)cc2)o1	inactive	Non-Toxic	Non-Toxic			inactive						
CCCCCCSc1nnc(COc2ccc(-n3cnnc3)cc2)o1	Active	Non-Toxic	Non-Toxic	9310 nM		Active	26.6 mg/kg	28.4 mg/kg	385 mg/kg	14.4	13.5	
CCCCSc1nnc(COc2ccc(NC(C)=O)cc2)o1		Non-Toxic	Non-Toxic		inactive							
CCCCCCCSc1nnc(COc2ccc(-n3cnnc3)cc2)o1		Non-Toxic	Non-Toxic		inactive							Activity (Mus musculus [9]): Active; Activity (Mus musculus [2]): Active; Activity (Mus musculus [19]): inactive
CCCCCCCCSc1nnc(COc2ccc(NC(C)=O)cc2)o1		Non-Toxic	Non-Toxic		inactive							
CCCCCCSc1nnc(COc2ccc(NC(C)=O)cc2)o1	Active	Non-Toxic	Non-Toxic	4120 nM		Active	20.9 mg/kg	26.8 mg/kg	420 mg/kg	20.1	15.6	
CC(=O)Nc1ccc(OCc2nnc(SCc3cccc(Cl)c3)o2)cc1	inactive	Non-Toxic	Non-Toxic			inactive						
O=C1CCc2cc(OCc3nnc(SCc4ccc(C(F)(F)F)cc4)o3)ccc2N1	Active	Non-Toxic	Non-Toxic	5280 nM		Active	23.1 mg/kg	27.6 mg/kg	376 mg/kg	16.2	13.6	
CC(=O)Nc1ccc(OCc2nnc(SCc3ccc(Cl)cc3)o2)cc1	inactive	Non-Toxic	Non-Toxic			inactive						
CC(=O)Nc1ccc(OCc2nnc(SCc3cccc(F)c3)o2)cc1	inactive	Non-Toxic	Non-Toxic			inactive						
CC(=O)Nc1ccc(OCc2nnc(SCc3ccccc3F)o2)cc1		Non-Toxic	Non-Toxic									Activity (Mus musculus [9]): Active; Activity (Mus musculus [2]): Active; Activity (Mus musculus [19]): inactive
